From patent US20140234345A1, “NOVEL ANTI-CANCER ISOC[…] CONJUGATES” (priority 2011, published 2014)

Legend:
[1] = system: A549, BxPC-3, HeLa, LoVo, MCF-7 and PC-3 cells; assay: In vitro testing on various tumour cell lines (Alamar Blue cell viability); assay type: cell-based; conditions: after 48 hours
Procedure: (§1) A549 (CCL-185), BxPC-3 (CRL-1687), HeLa (CCL-2), LoVo (CCL-229), MCF-7 (HTB-22), and PC-3 (CRL-1435) cells were purchased from ATCC (Manassas, Va.). Alamar Blue was purchased from Invitrogen Canada Inc. (Burlington, ON). All other tissue culture and reagent grade materials were purchased from either VWR (Mississauga, ON) or Sigma Aldrich (Oakville, ON).
(§2) All cell lines were maintained at 37° C. in a CO2 cell culture incubator with 5% CO2 and 95% humidity. A549, Lovo, and PC-3 cells were cultured in F-12K media, BxPC-3 cells were culture in RPMI-1640 media, and HeLa and MCF-7 cells were cultured in Eagle's Minimum Essential Media (MEM) with […]. All cell culture media was supplemented with 10% fetal bovine serum (FBS), […] Penicillin, 0.1 mg/mL Streptomycin, 2.5 μg/mL Amphotericin B, and 50 μg/mL Gentamycin. In addition, MEM media for MCF-7 cells also contained 0.01 mg/mL bovine insulin.

[2] = Amount of I(a) dissolved in Vitamin E TPGS composition (HPLC assay of centrifugate); assay type: physicochemical; conditions: 15:100 w/w I(a):Vitamin E TPGS, 45° C., water 8 ml per 100 mg Vitamin E, centrifuged
Procedure: A stir bar was then added and the solution was continuously mixed while at 45° C. for a minimum of 2 hours to allow full saturation of the product. […] The mixture was then cooled to room temperature, and centrifuged to separate the undissolved material. The centrifugate was assayed for the amount of compound I(a) using HPLC.

lung tumour cells = assay: In vitro tumour cell line testing, lung; assay type: cell-based; conditions: after 72 hours
Procedure: as §1, §2

[3] = I(a) concentration in Cremophor EL:ethanol composition (HPLC); assay type: physicochemical; conditions: 1:60 w/w I(a):CrEL, ethanol 1:1 v/v to CrEL, room temperature
Procedure: One to sixty (1:60) ratio by weight of compound I(a) to CrEL was mixed into a glass vial and stirred for about one hour at room temperature to allow solubilization. Dehydrated ethanol USP was then added at a ratio (v/v) one to one (1:1) to CrEL. The mixture was stirred for half hour to ensure the dissolution of the mixture. The final solution was then tested by HPLC to verify compound I(a) concentration.

[4] = system: colorectal tumour cell line; assay: In vitro tumour cell line testing, colorectal; assay type: cell-based; conditions: for effect on colorectal tumour cell line: after 48 hours
Procedure: as §1, §2

[5] = system: pancreas tumour cell line; assay: In vitro tumour cell line testing, pancreas; assay type: cell-based; conditions: for effect on pancreas tumour cell line: after 48 hours
Procedure: as §1, §2

[6] = system: prostate tumour cell line; assay: In vitro tumour cell line testing, prostate; assay type: cell-based; conditions: for effect on prostate tumour cell line: after 48 hours
Procedure: as §1, §2

[7] = system: Healthy PBMC (Peripheral Blood Mononuclear Cells); assay: Cell viability of healthy PBMC
Procedure: (§3) All cell lines were plated in black, tissue culture treated, 96 well plates at a cell density of 1×10^5 celis/mL (1×10^4 cells/well). Cells were allowed 24 h to attach to the plate prior to being dosed with drug. […] Cells were allowed to incubate for 48 or 72 h. Following incubation cells were stained with Alamar Blue such that the final concentration of Alamar Blue in the test well was 10%. Cells were stained for 2 h and then fluorescence was measured on a Molecular Devices Analyst GT multimode plate reader using an excitation filter of 530/25 nm and an emission filter of 580/10 nm and a 561 nm dichroic mirror. Cell viability was expressed as a percentage of untreated control cells. Data are expressed as mean±standard error and are the average of four independent cell preparations.
(§4) Healthy PBMC (Peripheral Blood Mononuclear Cells) were treated similarly to the above tumour cell line tests.

[8] = Cell viability of healthy PBMC
Procedure: as §3, §4

[9] = system: cervical tumour cell line; assay: In vitro tumour cell line testing, cervical; assay type: cell-based; conditions: for effect on cervical tumour cell line: after 48 hours
Procedure: as §1, §2

Row | SMILES | anti-cancer effect against a wide variety of cancers [1] | amount of I(a) contained in resultant formulation [2] [mg/mL] | results on lung tumour cells (lung tumour cells) | amount of I(a) contained in resultant formulation [3] [mg/mL] | effect on colorectal tumour cell line [4] | effect against colorectal cancer ([4]; after 72 hours) | effect on pancreas tumour cell line [5] | effect against pancreas cancer ([5]; after 72 hours) | effect on prostate tumour cell line [6] | results on prostate tumour cells ([6]; after 72 hours) | selectivity for cancer cells over healthy cells ([7]; PBMC tests compared to tumour cell line tests) | PBMC cell death compared to narciclasine ([7]; in DMSO, 48 and 72 hours) | viability [8] [%] | viability at 2.265 µM [8] [%] | effect on cervical tumour cell line [9] | results on cervical tumour cells ([9]; after 72 hours)
1 | CC/C=C\C/C=C\C/C=C\C/C=C\C/C=C\C/C=C\CCC(=O)O[C@H]1C=C2c3cc4c(c(O)c3C(=O)N[C@H]2[C@H](O)[C@@H]1O)OCO4 [Compound I(a), Narciclasine 2-Hydroxy DHA Conjugate] | strong anti-cancer effect | 1.8 to 1.9 | good results | 9.9 | strong effect | works well | strong effect | works well | strong effect | good results | selectively kill cancer cells at a much higher percentage than healthy cells | small increase of cell death | ~90 | > 60 | strong effect | good results
2 | O=C1N[C@@H]2C(=C[C@H](O)[C@@H](O)[C@H]2O)c2cc3c(c(O)c21)OCO3 [narciclasine, reference compound] | strong anti-cancer effect |  |  |  | strong effect |  | strong effect |  | strong effect |  |  |  |  |  | strong effect | 
